Experimental data as given in patent US20180344680A1, “COMPOSITIONS AND METHODS FOR TREATMENT, AMELIORATION, AND PREVENTION OF DIABETES-RELATED SKIN ULCERS” (THE ARIZONA BOARD OF REGENTS ON BEHALF OF THE UNIVERSITY OF …, priority 2015, published 2018).

Tests used:
[1] = tested on: wounds of STZ-induced diabetic Nrf2+/+ mice; experiment: Wound closure in STZ-induced diabetic mouse model; assay type: in vivo; conditions: for wound closure / diameter of granulation tissue between the flanking hair follicles: STZ mice; for wound closure: 12.5 mg/kg SF or 50 mg/kg CA i.p. every other day, up to 14 days after wound surgery, vs untreated STZ; for diameter of granulation tissue between the flanking hair follicles: day 14 post-surgery, histological examination
Excerpt: Diabetes mouse model and treatments. Nrf2^+/+ and Nrf2^-/- C57BL/6 mice were described previously (see, e.g., Jiang T, et al., Diabetes 59:850-860, 2010) and were housed and handled in accordance with the University of Arizona Institutional Animal Care policies. The STZ-induced diabetic model was previously described (see, e.g., Zheng H, et al., Diabetes 60:3055-3066, 2011) and only 8 week old male mice were included in this study. Briefly, three weeks after STZ injections, fasting glucose levels (FGL, 4 h fast) were measured using the AlphaTRAK system (Abbott Laboratory, North Chicago, Ill.) and mice with a FGL higher than or equal to 250 mg/dL were considered diabetic and included in the study (see, e.g., FIG. 2A and FIG. 3A for a detailed timeline). The mice (n=5-8) were then allocated randomly to each of the indicated treatment groups and received corn oil (control), 12.5 mg/kg SF or 50 mg/kg CA intraperitoneally every two days until skin tissues were harvested. One week after the treatments, the mice were anesthetized, their backs were shaved and cleaned. Two wounds were made with a sterile 6 mm skin biopsy punch (Health link, Jacksonville, Fla.) and covered with 3M Tegaderm pads. The wounds were photographed using an in vivo imaging system and an infrared integrated system ([…], Northampton, UK) for 14 days. Gross wound closure was quantified by ImageJ software, and wound healing was expressed as the percentage of the original wound area that had healed. The tissues were collected using an 8 mm skin biopsy punch; one half was fixed in 10% buffered formalin and embedded in paraffin while the other half was used for protein extraction. For the experiments in non-diabetic mice (FIG. 9), mice were injected with sodium citrate buffer and randomly allocated to the treatment groups (n=3-5). Wounds and tissue collection were performed as described above.

MMP9 = MMP9 expression in wound skin tissues of STZ mice (immunoblot, IHC); assay type: in vivo, mouse; conditions: immunoblot and IHC, day 14
Excerpt: Diabetes mouse model and treatments. Nrf2^+/+ and Nrf2^-/- C57BL/6 mice were described previously (see, e.g., Jiang T, et al., Diabetes 59:850-860, 2010) and were housed and handled in accordance with the University of Arizona Institutional Animal Care policies. The STZ-induced diabetic model was previously described (see, e.g., Zheng H, et al., Diabetes 60:3055-3066, 2011) and only 8 week old male mice were included in this study. Briefly, three weeks after STZ injections, fasting glucose levels (FGL, 4 h fast) were measured using the AlphaTRAK system (Abbott Laboratory, North Chicago, Ill.) and mice with a FGL higher than or equal to 250 mg/dL were considered diabetic and included in the study (see, e.g., FIG. 2A and FIG. 3A for a detailed timeline). […] Gross wound closure was quantified by ImageJ software, and wound healing was expressed as the percentage of the original wound area that had healed. […] Morphology was assessed by hematoxylin and eosin (H&E) staining (Vector laboratory, Burlingame, Calif.). […] Protein concentration was measured using Quant-iT Protein Assay (Invitrogen) and 150 μg of protein were resolved by SDS-PAGE and immunoblotting analyses with the indicated antibodies.

Structure (SMILES) | wound closure [1] | diameter of granulation tissue between the flanking hair follicles [1] | MMP9 protein expression (MMP9) | wound closure compared with non-diabetic Con mice ([1]; STZ+SF mice, during the first 7 days)
O=CC=Cc1ccccc1 [CA, Cinnamaldehyde] | accelerated wound closure | markedly reduced | restored the protein expression of MMP9 to levels comparable to the Con mice | 
C[S@@+]([O-])CCCCN=C=S [SF, L-sulforaphane] | accelerated wound closure | markedly reduced | restored the protein expression of MMP9 to levels comparable to the Con mice | even faster than that of the Con mice
